Experiment [1] addresses T1, AR (Homo sapiens, UniProt P10275). In words: cell-based. The conditions noted are these: for PSA levels of LN-AR cells (FIG. 21): doses of 100, 200, 500 and 1000 nM. The format is cell-based. As to the method:
It is well established that PSA levels are indicators of AR activities in prostate cancer. […] The LNCaP-AR cells are a line of lymph node carcinoma of prostate cells transduced with a plasmid that makes express androgen receptors. […] After four days incubation, secreted PSA levels were assayed using PSA ELISA kits (American Qualex, San Clemente, Calif.)

In experiment [2] the target is T1, AR. Briefly: cell-based. The format is cell-based. The conditions noted are these: for Rank order, most active to least active, relative luciferase activity (FIG. 3): 500 nM; for IC50 (nM) Reporter: LNCaP-AR, 100 pM R1881, two days, No = did not inhibit AR response reporter. As to the method: The compounds were subjected to tests using an artificial AR response reporter system in a hormone refractory prostate cancer cell line. […] After two days of incubation, reporter activities were assayed.

Structures are written as SMILES. Read-outs that look alike come from different tables or passages of the source.

T1 sequence (P10275 whole entry, looked up): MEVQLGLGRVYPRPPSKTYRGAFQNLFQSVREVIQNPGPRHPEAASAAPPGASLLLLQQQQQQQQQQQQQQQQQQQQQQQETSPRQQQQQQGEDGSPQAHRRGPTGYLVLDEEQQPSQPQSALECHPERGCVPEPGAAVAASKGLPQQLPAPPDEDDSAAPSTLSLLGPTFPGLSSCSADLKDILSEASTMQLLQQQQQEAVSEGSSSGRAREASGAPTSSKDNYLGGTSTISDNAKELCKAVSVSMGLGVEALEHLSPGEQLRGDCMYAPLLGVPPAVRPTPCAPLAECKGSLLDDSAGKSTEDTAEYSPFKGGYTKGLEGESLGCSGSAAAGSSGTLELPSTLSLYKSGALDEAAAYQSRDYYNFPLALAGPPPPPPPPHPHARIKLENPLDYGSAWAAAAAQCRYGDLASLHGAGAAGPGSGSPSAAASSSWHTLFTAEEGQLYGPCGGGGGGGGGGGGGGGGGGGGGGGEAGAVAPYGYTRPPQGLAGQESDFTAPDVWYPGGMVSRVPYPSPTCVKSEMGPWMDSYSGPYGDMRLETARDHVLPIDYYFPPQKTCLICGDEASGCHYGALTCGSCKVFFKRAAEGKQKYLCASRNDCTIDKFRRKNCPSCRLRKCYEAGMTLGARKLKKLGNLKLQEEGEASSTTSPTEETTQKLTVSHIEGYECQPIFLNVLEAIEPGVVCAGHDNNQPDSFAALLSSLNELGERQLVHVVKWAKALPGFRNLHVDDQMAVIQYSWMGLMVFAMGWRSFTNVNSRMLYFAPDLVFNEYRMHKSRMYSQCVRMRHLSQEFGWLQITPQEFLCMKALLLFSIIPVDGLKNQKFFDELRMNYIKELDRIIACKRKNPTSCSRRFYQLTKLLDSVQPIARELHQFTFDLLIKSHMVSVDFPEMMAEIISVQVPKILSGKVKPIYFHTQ

For orientation: IC50 means the point on the concentration scale where inhibition reaches its midpoint. With `CC1(C)C(=O)N(c2ccc(C#N)c(C(F)(F)F)c2)C(=S)N1c1ccc(C(F)(F)F)cc1` [RD66, 4-(4,4-dimethyl-5-oxo-2-thioxo-3-(4-trifluoromethylphenyl)imidazolidin-1-yl)-2-trifluoromethylbenzonitrile], the results for the 50% inhibitory concentration (IC50) at AR [1] and on AR [2] were 144 nM and 143 nM, respectively.
As to `CC1(C)C(=O)N(c2ccc(C#N)c(C(F)(F)F)c2)C(=S)N1c1ccccc1` [Example 6-2, 4-[3-phenyl-4,4-dimethyl-5-oxo-2-thioxoimidazolidin-1-yl]-2-trifluoromethylbenzonitrile], the IC50 against AR [2] is 149 nM.
`Cc1ccc(N2C(=S)N(c3ccc(C#N)c(C(F)(F)F)c3)C(=O)C23CCCC3)cc1` [RD35, 4-(4-oxo-2-thioxo-1-(4-methylphenyl)-1,3-diazaspiro[4.4]non-3-yl)-2-trifluoromethylbenzonitrile] returned a 50% inhibitory concentration (IC50) on AR [2] of 147 nM.
In turn, `CC(O)c1ccc(N2C(=S)N(c3ccc(C#N)c(C(F)(F)F)c3)C(=O)C23CCC3)cc1` (stereo not drawn) [RD116, 4-{5-[4-(1-hydroxyethyl)-phenyl]-8-oxo-6-thioxo-5,7-diazaspiro[3.4]oct-7-yl}-2-trifluoromethyl-benzonitrile] gave a half-inhibitory concentration (IC50) against AR [1] of 187 nM. In other words, the sub-micromolar range.
With `CS(=O)(=O)c1ccc(N2C(=S)N(c3ccc(C#N)c(C(F)(F)F)c3)C(=O)C23CCC3)cc1` [RD145, 4-[5-(4-methanesulfonylphenyl)-8-oxo-6-thioxo-5,7-diazaspiro[3.4]oct-7-yl]-2-trifluoromethylbenzonitrile], on AR [2], the “Luciferase activity in LNCaP-AR cells (FIG. 3)” value is “acted to reduce luciferase activity” and the “Rank order, most active to least active, relative luciferase activity (FIG. 3)” value is “RD152>RD153>RD145>RD163>RD161=RD162>bicalutamide”.
For the compound `N#Cc1ccc(N2C(=O)C3(CCC3)N(c3ccc(CCC(N)=O)cc3)C2=S)cc1C(F)(F)F` [RD133, 3-{4-[7-(4-cyano-3-trifluoromethylphenyl)-8-oxo-6-thioxo-5,7-diaza-spiro[3.4]oct-5-yl]-phenyl}-propionamide], the “Rank order, most active to least active, relative PSA level (FIG. 4)” value at AR [1] (500 nM) is recorded as “RD138>RD131>RD37>RD133>RD134>RD137>RD138>RD135>bicalutamide”. The “Decrease in PSA level of LNCaP-AR cells, comparison (FIG. 4)” value at AR [1] (at concentrations of 1000 nM) is “greater decrease in PSA level of LNCaP-AR cells than RD135 and RD137”. At AR [2], this compound came in with a half-inhibitory concentration (IC50) of 224 nM.
`Cc1ccnc(N2C(=S)N(c3ccc(C#N)c(C(F)(F)F)c3)C(=O)C2(C)C)c1` [RD83, 4-[4,4-dimethyl-3-(4-methylpyridin-2-yl)-5-oxo-2-thioxoimidazolidin-1-yl]-2-trifluoromethylbenzonitrile] returned an IC50 against AR [2] of 457 nM.
Still for that read-out and setting: with `Cc1ccc(N2C(=S)N(c3ccc(C#N)c(C(F)(F)F)c3)C(=O)C23CCN(C)CC3)cc1` [RD53, 4-(8-methyl-4-oxo-2-thioxo-1-(4-methylphenyl)-1,3,8-triazaspiro[4.5]dec-3-yl)-2-trifluoromethylbenzonitrile] the figure was 638 nM; with `CC1(C)C(=O)N(c2ccc(C#N)c(C(F)(F)F)c2)C(=S)N1c1ccc(N)cc1` [RD9, 4-[3-(4-aminophenyl)-4,4-dimethyl-5-oxo-2-thioxoimidazolidin-1-yl]-2-trifluoromethylbenzonitrile], 273 nM.
Same read-out and setting: with `N#Cc1ccc(N2C(=O)C3(CCC3)N(c3ccc(-c4ccccc4)cc3)C2=S)cc1C(F)(F)F` [RD57, 4-(8-oxo-6-thioxo-5-(4-biphenyl)-5,7-diazaspiro[3.4]oct-7-yl)-2-trifluoromethylbenzonitrile] the figure was 283 nM.
`N#CCCCc1ccc(N2C(=S)N(c3ccc(C#N)c(C(F)(F)F)c3)C(=O)C23CCC3)cc1` [RD170, 4-(5-(4-(3-Cyanopropyl)phenyl)-8-oxo-6-thioxo-5,7-diazaspiro[3.4]octan-7-yl)-2-(trifluoromethyl)benzonitrile]: on AR [1], the “PSA levels of LN-AR cells (FIG. 21)” value is “decreased”.
Regarding `Cc1ccc(N2C(=S)N(c3ccc(C#N)c(C(F)(F)F)c3)C(=O)C23CCCCC3)cc1` [RD48, 4-(4-oxo-2-thioxo-1-(4-methylphenyl)-1,3-diazaspiro[4.5]dec-3-yl)-2-trifluoromethylbenzonitrile], on AR [2], the 50% inhibitory concentration (IC50) is 194 nM.
As to `N#Cc1ccc(N2C(=O)C3(CCC3)N(c3ccc(/C=C/C(N)=O)cc3)C2=S)cc1C(F)(F)F` [RD119, 3-{4-[7-(4-Cyano-3-trifluoromethyl-phenyl)-8-oxo-6-thioxo-5,7-diaza-spiro[3.4]oct-5-yl]-phenyl}-acrylamide], on AR [1], the IC50 stood at 113 nM. This counts as sub-micromolar.
Take `CC1(C)C(=O)N(c2ccc(C#N)c(C(F)(F)F)c2)C(=S)N1c1ccccn1` [RD82, 4-[4,4-dimethyl-3-(4-pyridin-2-yl)-5-oxo-2-thioxoimidazolidin-1-yl]-2-trifluoromethylbenzonitrile]: the 50% inhibitory concentration (IC50) against AR [2] stood at 723 nM.
Take `CNC(=O)c1ccc(N2C(=S)N(c3ccc(C#N)c(C(F)(F)F)c3)C(=O)C2(C)C)cc1` [RD153, 4-[3-(4-cyano-3-trifluoromethylphenyl)-5,5-dimethyl-4-oxo-2-thioxo-imidazolidin-1-yl]-N-methylbenzamide]: on AR [2], the “Luciferase activity in LNCaP-AR cells (FIG. 3)” value is “acted to reduce luciferase activity” and the “Rank order, most active to least active, relative luciferase activity (FIG. 3)” value was “RD152>RD153>RD145>RD163>RD161=RD162>bicalutamide”. At AR [2] (for a given concentration, 125 nmol to 1000 nmol), the “Luciferase activity, LN/AR cell line (FIG. 29)” value was “less than the luciferase activity upon exposure to RD155”.
For `COC(=O)CCc1ccc(N2C(=S)N(c3ccc(C#N)c(C(F)(F)F)c3)C(=O)C23CCC3)cc1` [RD128, 3-{4-[7-(4-cyano-3-trifluoromethylphenyl)-8-oxo-6-thioxo-5,7-diazaspiro[3.4]oct-5-yl]-phenyl}-propionic acid methyl ester], the “IC50 (nM) Reporter” value against AR [2] is reported as “No”.
On to `COC(=O)CCCc1ccc(N2C(=S)N(c3ccc(C#N)c(C(F)(F)F)c3)C(=O)C23CCC3)cc1` [RD129, 4-{4-[7-(4-cyano-3-trifluoromethylphenyl)-8-oxo-6-thioxo-5,7-diazaspiro[3.4]oct-5-yl]-phenyl}-butyric acid methyl ester], for which half-maximal inhibition on AR [2] (IC50) was put at 432 nM.
`CNC(=O)c1ccc(N2C(=S)N(c3ccc(C#N)c(C(F)(F)F)c3)C(=O)C23CCCC3)cc1F` [RD162″, 4-(3-(4-Cyano-3-(trifluoromethyl)phenyl)-4-oxo-2-thioxo-1,3-diazaspiro[4.4]nonan-1-yl)-2-fluoro-N-methylbenzamide]: the “PSA levels of LN-AR cells (FIG. 21)” value at AR [1] is recorded as “decreased”.
As to `COC(=O)c1ccc(N2C(=S)N(c3ccc(C#N)c(C(F)(F)F)c3)C(=O)C2(C)C)cc1` [RD152, 4-[3-(4-cyano-3-trifluoromethylphenyl)-5,5-dimethyl-4-oxo-2-thioxo-imidazolidin-1-yl]benzoic acid methyl ester], on AR [2], the “Luciferase activity in LNCaP-AR cells (FIG. 3)” value was “acted to reduce luciferase activity” and the “Rank order, most active to least active, relative luciferase activity (FIG. 3)” value is given as “RD152>RD153>RD145>RD163>RD161=RD162>bicalutamide”.
The compound `CC1(C)C(=O)N(c2ccc(C#N)c(C(F)(F)F)c2)C(=S)N1c1ccc(OC(=O)CCl)cc1` [RD13, Chloroacetic acid 4-[3-(4-cyano-3-trifluoromethylphenyl)-5,5-dimethyl-4-oxo-2-thioxoimidazolidin-1-yl]phenyl ester] registered a half-maximal inhibitory concentration (IC50) on AR [2] of 131 nM.
For `N#Cc1ccc(N2C(=O)C3(CCC3)N(c3ccc(/C=C/CO)cc3)C2=S)cc1C(F)(F)F` [RD120, 4-{5-[4-(3-hydroxypropenyl)-phenyl]-8-oxo-6-thioxo-5,7-diazaspiro[3.4]oct-7-yl}-2-trifluoromethylbenzonitrile], at AR [1], the IC50 was found to be 114 nM.
The compound `Cc1cc(N2C(=S)N(c3ccc(C#N)c(C(F)(F)F)c3)C(=O)C23CCC3)[nH]n1` [RD84, 4-[5-(5-methyl-2H-pyrazol-3-yl)-8-oxo-6-thioxo-5,7-diaza-spiro[3.4]oct-7-yl]-2-trifluoromethyl-benzonitrile, reference compound] came in with a half-inhibitory concentration (IC50) on AR [2] greater than 1000 nM.
On the same count and under the same terms, with `N#Cc1ccc(N2C(=O)C3(CCCC3)N(c3ccc([N+](=O)[O-])cc3)C2=S)cc1C(F)(F)F` [RD55, 4-[1-(4-nitrophenyl)-4-oxo-2-thioxo-1,3-diazaspiro[4.4]non-3-yl]-2-trifluoromethylbenzonitrile] the figure was 498 nM.
As for `N#Cc1ccc(N2C(=O)C3(CCC3)N(c3ccc(C=O)cc3)C2=S)cc1C(F)(F)F` [RD114, 4-[5-(4-formylphenyl)-8-oxo-6-thioxo-5,7-diazaspiro[3.4]oct-7-yl]-2-trifluoromethyl-benzonitrile], it took 263 nM to reach half-maximal inhibition on AR [1] (IC50).
As to `N#Cc1ccc(N2C(=O)C3(CCC3)N(c3ccc(O)cc3F)C2=S)cc1C(F)(F)F` [RD163, 4-[5-(2-fluoro-4-hydroxyphenyl)-8-oxo-6-thioxo-5,7-diazaspiro[3.4]oct-7-yl]-2-trifluoromethylbenzonitrile], on AR [2], the “Luciferase activity in LNCaP-AR cells (FIG. 3)” value is “acted to reduce luciferase activity” and the “Rank order, most active to least active, relative luciferase activity (FIG. 3)” value is on record as “RD152>RD153>RD145>RD163>RD161=RD162>bicalutamide”.
In the case of `N#Cc1ccc(N2C(=O)C3(CCC3)N(c3ccc(O)cc3)C2=S)cc1C(F)(F)F` [RD58, 4-(8-oxo-6-thioxo-5-(4-hydroxyphenyl)-5,7-diazaspiro[3.4]oct-7-yl)-2-trifluoromethylbenzonitrile], on AR [2], inhibition was half-maximal at 162 nM (IC50).
Take `CN(C)C(=O)CCCc1ccc(N2C(=S)N(c3ccc(C#N)c(C(F)(F)F)c3)C(=O)C23CCC3)cc1` [RD169, 4-(4-(7-(4-Cyano-3-(trifluoromethyl)phenyl)-8-oxo-6-thioxo-5,7-diazaspiro[3.4]octan-5-yl)phenyl)-N,N-dimethylbutanamide]: on AR [1], the “PSA levels of LN-AR cells (FIG. 21)” value is listed as “decreased”.
For `CN1CCC2(CC1)NC(=S)N(c1ccc(C#N)c(C(F)(F)F)c1)C2=O` [RD52, 4-(8-methyl-4-oxo-2-thioxo-1,3,8-triazaspiro[4.5]dec-3-yl)-2-trifluoromethylbenzonitrile, reference compound], the “IC50 (nM) Reporter” value at AR [2] is “No”.

These data come from patent US9126941B2, “Treatment of hyperproliferative disorders with diarylhydantoin compounds” (The Regents of the University of California, priority 2005, dated 2015).
